Measurements as given in ChEMBL document CHEMBL1201862, “PubChem BioAssay data set” (2004).
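Briefly, cells in 96-well plates were exposed to five compound concentrations for 48 h, and endpoints were estimated by linear interpolation. GI50 is the concentration that inhibits growth by half.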 Calls of active or inactive are those of the source. Cut-off read from the data, not from the text of the source: active = GI50 up to about 1.1 µM and inactive = higher.

Assays:
Assay in all cases: NCI-60 cell line screen, 48 h
786-0 = tested on: 786-0
A498 = tested on: A498
BT-549 = tested on: BT-549
DMS-273 = tested on: DMS-273
HCT-116 = tested on: HCT-116
HOP-92 = tested on: HOP-92
KM-20L2 = tested on: KM-20L2
KM12 = tested on: KM12
M14 = tested on: M14
M19-MEL = tested on: M19-MEL
NCI-H460 = tested on: NCI-H460
NCI/ADR-RES = tested on: NCI/ADR-RES
OVCAR-3 = tested on: OVCAR-3
OVCAR-5 = tested on: OVCAR-5
RPMI-8226 = tested on: RPMI-8226
RXF 393 = tested on: RXF 393
SR = tested on: SR
SW-620 = tested on: SW-620
TK-10 = tested on: TK-10
UO-31 = tested on: UO-31

Measured: GI50

CCCCCCCCCCCC(=O)OC[C@H](C[As](=O)(O)O)OC(=O)CCCCCCCCCCC
inactive: 786-0 13.2 µM | A498 6.31 µM | BT-549 3.84 µM | DMS-273 3.98 µM | HCT-116 8.89 µM | HOP-92 1.75 µM | KM-20L2 6.04 µM | KM12 8.11 µM | M14 2.62 µM | M19-MEL 8.18 µM | NCI-H460 4.79 µM | NCI/ADR-RES 14.1 µM | OVCAR-3 5.92 µM | OVCAR-5 18.2 µM | RPMI-8226 6.03 µM | RXF 393 1.92 µM | SR 9.68 µM | SW-620 14.4 µM | TK-10 3.87 µM | UO-31 16 µM

CNC(=O)OCc1nc(SC)n(C)c1COC(=O)NC
inactive: 786-0 139 µM | A498 198 µM | BT-549 118 µM | DMS-273 86.5 µM | HCT-116 167 µM | HOP-92 111 µM | KM-20L2 177 µM | KM12 191 µM | M14 164 µM | M19-MEL 182 µM | NCI-H460 59.6 µM | NCI/ADR-RES 204 µM | OVCAR-3 187 µM | OVCAR-5 170 µM | RPMI-8226 117 µM | RXF 393 50.8 µM | SR 71.4 µM | SW-620 172 µM | TK-10 177 µM | UO-31 185 µM

CCC1(c2ccc(N)cc2)CCC(=O)NC1=O (stereo not given) [AMINOGLUTETHIMIDE]
inactive: 786-0 3420 µM | A498 2310 µM | BT-549 1660 µM | DMS-273 2560 µM | HCT-116 2620 µM | HOP-92 1030 µM | KM-20L2 3940 µM | KM12 2470 µM | M14 2290 µM | M19-MEL 2210 µM | NCI-H460 2580 µM | NCI/ADR-RES 1680 µM | OVCAR-3 1810 µM | OVCAR-5 > 4920 µM | RPMI-8226 2490 µM | RXF 393 1330 µM | SR > 3820 µM | SW-620 3520 µM | TK-10 2170 µM | UO-31 1930 µM
